Columns and labels:
[1] = tested on: MCP-1 induced calcium ion influx in THP-1 cells; experiment: MCP-1 Induced Calcium Mobilization in THP-1 Cells; assay type: cell-based; settings: Homo sapiens; for IC50: THP-1, THP-1 cells, 0.2 μM MCP-1, FLIPR, read-out: Inhibition of MCP-1 Induced Calcium Ion Influx IC50; for inhibition at 25 µM: THP-1, test concentration of 25 μM, given where an IC50 value was not obtained, read-out: Inhibition of MCP-1 Induced Calcium Ion Influx, percent inhibition
Experimental: THP-1 cells were plated at a density of 8×10^5 cells/mL (100 μL/well) into poly-D lysine coated clear bottom, black 96 well plates. The cells were loaded with 5 μM fluo-3 for 45 minutes. The fluo-3 washed off and cells were incubated with varying concentrations of test compound for 15 minutes. The change in calcium ion concentration upon addition of 0.2 μM MCP-1 was determined using FLIPR and compared to vehicle.
Table 2 lists IC50 values for inhibition of MCP-1 induced influx of calcium ions.

[2] = biological target: T1, CCR2 (Homo sapiens, UniProt P41597); experiment: MCP-1 Receptor Binding Assay in THP-1 Cells; settings: for IC50: THP-1 cells, 0.5 nM 125I labeled MCP-1, 2 hours at 30° C., read-out: Inhibition of MCP-1 Binding IC50; for inhibition at 25 µM: test concentration of 25 μM, given where an IC50 value was not obtained, read-out: Inhibition of MCP-1 Binding, percent inhibition
T1 construct: host or cells: THP-1 cells
T1 sequence (P41597 1-360 isoform P41597-2): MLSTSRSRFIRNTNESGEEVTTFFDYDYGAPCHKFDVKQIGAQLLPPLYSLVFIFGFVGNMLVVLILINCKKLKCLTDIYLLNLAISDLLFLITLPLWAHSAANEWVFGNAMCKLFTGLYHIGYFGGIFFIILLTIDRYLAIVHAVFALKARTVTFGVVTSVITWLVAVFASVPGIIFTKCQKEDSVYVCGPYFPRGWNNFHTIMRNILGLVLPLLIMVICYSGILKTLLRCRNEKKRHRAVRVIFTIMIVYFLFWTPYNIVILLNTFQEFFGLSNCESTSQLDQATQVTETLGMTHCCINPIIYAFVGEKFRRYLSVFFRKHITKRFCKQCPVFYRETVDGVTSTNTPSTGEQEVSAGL
Procedure, shortened: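 Whole THP-1 cells incubated 2 h at 30° C with 0.5 nM 125I-MCP-1 and varying compound concentrations; bound radioactivity harvested on filters and counted by scintillation. Nonspecific binding with 1 μM cold MCP-1; IC50 for inhibition of binding versus vehicle.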

Q: `COc1ccc(C2CCN(CC(O)C3(O)CCN(C(=O)Nc4ccc(Cl)c(Cl)c4)CC3)CC2)cc1` (centres unmarked) [Compound 116, 4-hydroxy-4-{1-hydroxy-2-[4-(4-methoxy-phenyl)-piperidin-1-yl]-ethyl}-piperidine-1-carboxylic acid (3,4-dichloro-phenyl)-amide] was tested. Which IC50 [1] did it give?
A: 840 nM

Q: What about the IC50 [2] of the same molecule?
A: 530 nM

Q: What does the source list for `COc1ccc(C2CCN(CC(O)C3(O)CCN(C(=S)Nc4ccc(Cl)c(Cl)c4)CC3)CC2)cc1` (centres unmarked) [Compound 117, 4-hydroxy-4-{1-hydroxy-2-[4-(4-methoxy-phenyl)-piperidin-1-yl]-ethyl}-piperidine-1-carbothioic acid (3,4-dichloro-phenyl)-amide]?
A: IC50 [1]: 1200 nM; IC50 [2]: 1300 nM

Q: For `COc1ccc(C2CCN(CC(O)C3(O)CCN(C(=S)Nc4cc(Cl)cc(Cl)c4)CC3)CC2)cc1` (centres unmarked) [Compound 118, 4-hydroxy-4-{1-hydroxy-2-[4-(4-methoxy-phenyl)-piperidin-1-yl]-ethyl}-piperidine-1-carbothioic acid (3,5-dichloro-phenyl)-amide], which IC50 [1] is on record?
A: 3100 nM

Q: And the IC50 [2]?
A: 1300 nM

Q: What does the source list for `OC(CN1CCC(c2c[nH]c3ccccc23)CC1)C1(O)CCN(c2nccc(C(F)(F)F)n2)CC1` (centres unmarked) [Compound 120, 4-{1-hydroxy-2-[4-(1H-indol-3-yl)-piperidin-1-yl]-ethyl}-1-(4-trifluoromethyl-pyrimidin-2-yl)-piperidin-4-ol]?
A: inhibition at 25 µM [1]: 13%; IC50 [2]: 1900 nM

Q: What does the source list for `OC(CN1CCC(c2nc3ccccc3[nH]2)CC1)C1(O)CCN(c2nccc(C(F)(F)F)n2)CC1` (centres unmarked) [Compound 121, 4-{2-[4-(1H-benzoimidazol-2-yl)-piperidin-1-yl]-1-hydroxy-ethyl}-1-(4-trifluoromethyl-pyrimidin-2-yl)-piperidin-4-ol]?
A: inhibition at 25 µM [1]: 65%; inhibition at 25 µM [2]: 50%

Q: How did the inhibition at 25 µM [1] turn out when `Cc1ccc2[nH]cc(C3CCN(CC(O)C4(O)CCN(c5nccc(C(F)(F)F)n5)CC4)CC3)c2c1` (centres unmarked) [Compound 123, 4-{1-hydroxy-2-[4-(5-methyl-1H-indol-3-yl)-piperidin-1-yl]-ethyl}-1-(4-trifluoromethyl-pyrimidin-2-yl)-piperidin-4-ol] was run?
A: 68%

Q: And the IC50 [2]?
A: 9400 nM

Q: For `N#Cc1ccc2[nH]cc(C3CCN(CC(O)C4(O)CCN(c5nccc(C(F)(F)F)n5)CC4)CC3)c2c1` (centres unmarked) [Compound 124, 3-(1-{2-hydroxy-2-[4-hydroxy-1-(4-trifluoromethyl-pyrimidin-2-yl)-piperidin-4-yl]-ethyl}-piperidin-4-yl)-1H-indole-5-carbonitrile], which inhibition at 25 µM [1] is on record?
A: 43%

Q: What about the IC50 [2] of the same molecule?
A: 8300 nM

Q: For `O=C(/C=C/c1ccc(F)c(F)c1)N1CCC(O)(C(O)CN2CCC(c3ccc(F)cc3)CC2)CC1` (centres unmarked) [Compound 129], which IC50 [1] is on record?
A: 8000 nM

Q: What about the IC50 [2] of the same molecule?
A: 500 nM

Q: Which results are given for `O=C(/C=C/c1ccc(Cl)c(Cl)c1)N1CCC(O)(C(O)CN2CCC(c3ccc(F)cc3)CC2)CC1` (centres unmarked) [Compound 131]?
A: IC50 [1]: 380 nM; IC50 [2]: 180 nM

Q: `O=C(Nc1ccc(F)c(F)c1)N1CCC(O)(C(O)CN2CCC(c3ccc(F)cc3)CC2)CC1` (centres unmarked) [Compound 132, 4-{2-[4-(4-fluoro-phenyl)-piperidin-1-yl]-1-hydroxy-ethyl}-4-hydroxy-piperidine-1-carboxylic acid (3,4-difluoro-phenyl)-amide] was tested. Which inhibition at 25 µM [1] did it give?
A: 26%

Q: And the IC50 [2]?
A: 2400 nM

Q: For `O=C(Nc1ccc(Cl)c(Cl)c1)N1CCC(O)(C(O)CN2CCC(c3ccc(F)cc3)CC2)CC1` (centres unmarked) [Compound 134, 4-{2-[4-(4-fluoro-phenyl)-piperidin-1-yl]-1-hydroxy-ethyl}-4-hydroxy-piperidine-1-carboxylic acid (3,4-dichloro-phenyl)-amide], which inhibition at 25 µM [1] is on record?
A: 52%

Q: What about the IC50 [2] of the same molecule?
A: 1900 nM

Q: For `OC(CN1CCC(c2ccc(F)cc2)CC1)C1(O)CCN(C(=S)Nc2ccc(Cl)c(Cl)c2)CC1` (centres unmarked) [Compound 135, 4-{2-[4-(4-fluoro-phenyl)-piperidin-1-yl]-1-hydroxy-ethyl}-4-hydroxy-piperidine-1-carbothioic acid (3,4-dichloro-phenyl)-amide], which IC50 [1] is on record?
A: 9200 nM

Q: What about the IC50 [2] of the same molecule?
A: 730 nM

Q: What does the source list for `O=C(/C=C/c1ccc(Cl)c(Cl)c1)N1CCC(O)(C(O)CN2CCC(c3ccc(C(F)(F)F)cc3)CC2)CC1` (centres unmarked) [Compound 139]?
A: IC50 [1]: 310 nM; IC50 [2]: 920 nM

Q: `O=C(/C=C/c1cc(F)c(F)c(F)c1)N1CCC(O)(C(O)CN2CCC(O)(c3ccc(F)cc3)CC2)CC1` (centres unmarked) [Compound 152] was tested. Which inhibition at 25 µM [1] did it give?
A: 43%

Q: What about the IC50 [2] of the same molecule?
A: 3100 nM

Q: Which results are given for `O=C(/C=C/c1ccc(F)c(F)c1)N1CCC(O)(C(O)CN2CCC(O)(c3ccc(F)cc3)CC2)CC1` (centres unmarked) [Compound 153]?
A: inhibition at 25 µM [1]: 12%; IC50 [2]: 730 nM

Q: With `O=C(/C=C/c1ccc(Cl)c(Cl)c1)N1CCC(O)(C(O)CN2CCC(c3c[nH]c4ccc(F)cc34)CC2)CC1` (centres unmarked) [Compound 158] as the molecule, how does the IC50 [1] read?
A: 2100 nM

Q: And the IC50 [2]?
A: 350 nM

Q: `O=C(/C=C/c1ccc(F)c(Br)c1)N1CCC(O)(C(O)CN2CCC(c3c[nH]c4ccc(F)cc34)CC2)CC1` (centres unmarked) [Compound 159] was tested. Which IC50 [1] did it give?
A: 1500 nM

Q: And the IC50 [2]?
A: 730 nM

Q: Which results are given for `O=C(CCc1ccc(Cl)cc1)N1CCC(O)(C(O)CN2CCC(c3c[nH]c4ccc(F)cc34)CC2)CC1` (centres unmarked) [Compound 160, 3-(4-chloro-phenyl)-1-(4-{2-[4-(5-fluoro-1H-indol-3-yl)-piperidin-1-yl]-1-hydroxy-ethyl}-4-hydroxy-piperidine-1-yl)-propan-1-one]?
A: IC50 [1]: 3600 nM; IC50 [2]: 840 nM

Q: How did the IC50 [1] turn out when `O=C(/C=C/c1ccc(Cl)c(Cl)c1)N1CCC(O)(C(O)CN2CCC(c3c[nH]c4ccc(N5CCOCC5)cc34)CC2)CC1` (centres unmarked) [Compound 169] was run?
A: 5400 nM

Q: What about the IC50 [2] of the same molecule?
A: 790 nM

Q: `O=C(/C=C/c1ccc(Cl)cc1)N1CCC(O)(C(O)CN2CCC(c3c[nH]c4ccc(N5CCOCC5)cc34)CC2)CC1` (centres unmarked) [Compound 170] was tested. Which IC50 [1] did it give?
A: 17200 nM

Q: And the IC50 [2]?
A: 4400 nM

Q: `O=C(/C=C/c1ccc(F)cc1)N1CCC(O)(C(O)CN2CCC(c3c[nH]c4ccc(N5CCOCC5)cc34)CC2)CC1` (centres unmarked) [Compound 171] was tested. Which inhibition at 25 µM [1] did it give?
A: 22%

Q: And the IC50 [2]?
A: 12800 nM

Q: With `O=C(/C=C/c1ccc(F)c(F)c1)N1CCC(O)(C(O)CN2CCC(c3c[nH]c4ccc(N5CCOCC5)cc34)CC2)CC1` (centres unmarked) [Compound 172] as the molecule, how does the inhibition at 25 µM [1] read?
A: 46%

Q: What about the IC50 [2] of the same molecule?
A: 3700 nM

Q: Which results are given for `O=C(/C=C/c1ccc(F)c(Br)c1)N1CCC(O)(C(O)CN2CCC(c3c[nH]c4ccc(N5CCOCC5)cc34)CC2)CC1` (centres unmarked) [Compound 173]?
A: IC50 [1]: 1200 nM; IC50 [2]: 910 nM

Q: Which inhibition at 25 µM [1] does the source give for `Cc1cccc(/C=C/C(=O)N2CCC(O)(C(O)CN3CCC(c4c[nH]c5ccc(N6CCOCC6)cc45)CC3)CC2)c1` (centres unmarked) [Compound 174] here?
A: 44%

Q: What about the IC50 [2] of the same molecule?
A: 3200 nM

Q: How did the inhibition at 25 µM [1] turn out when `O=C(/C=C/c1cc(F)c(F)cc1F)N1CCC(O)(C(O)CN2CCC(c3c[nH]c4ccc(N5CCOCC5)cc34)CC2)CC1` (centres unmarked) [Compound 175] was run?
A: 24%

Q: And the inhibition at 25 µM [2]?
A: 70%

Q: With `COc1cccc(/C=C/C(=O)N2CCC(O)(C(O)CN3CCC(c4c[nH]c5ccc(N6CCOCC6)cc45)CC3)CC2)c1` (centres unmarked) [Compound 177] as the molecule, how does the inhibition at 25 µM [1] read?
A: 27%

Q: What about the inhibition at 25 µM [2] of the same molecule?
A: 53%

Q: Which results are given for `O=C(/C=C/c1ccsc1)N1CCC(O)(C(O)CN2CCC(c3c[nH]c4ccc(N5CCOCC5)cc34)CC2)CC1` (centres unmarked) [Compound 178]?
A: inhibition at 25 µM [1]: 2%; inhibition at 25 µM [2]: 59%

Q: With `OC(CN1CCC(c2c[nH]c3ccc(N4CCOCC4)cc23)CC1)C1(O)CCN(C(=S)Nc2cc(Cl)cc(Cl)c2)CC1` (centres unmarked) [Compound 182, 4-hydroxy-4-{1-hydroxy-2-[4-(5-morpholin-4-yl-1H-indol-3-yl)-piperidin-1-yl]-ethyl}-piperidine-1-carbothioic acid (3,5-dichloro-phenyl)-amide] as the molecule, how does the IC50 [1] read?
A: 5400 nM

Q: And the IC50 [2]?
A: 4900 nM

Reference: US20070197590A1, “SUBSTITUTED DIPIPERIDINE CCR2 ANTAGONISTS” (priority 2006, published 2007)
